Data: patent US6376212B1, “Polypeptide compounds and nucleotide sequences promoting resistance to eutypa dieback in plants” (Societe des Domaines Viticoles Martell, priority 1997, dated 2002)

Legend:
[1] = target: T1, protein encoded in the VRER gene (Vigna radiata, UniProt Q9SQK0); assay: Biochemical characteristics of the protein encoded in the VRER gene (substrate reduction with NADPH); settings: in the presence of NADPH
T1 sequence (Q9SQK0 1-325): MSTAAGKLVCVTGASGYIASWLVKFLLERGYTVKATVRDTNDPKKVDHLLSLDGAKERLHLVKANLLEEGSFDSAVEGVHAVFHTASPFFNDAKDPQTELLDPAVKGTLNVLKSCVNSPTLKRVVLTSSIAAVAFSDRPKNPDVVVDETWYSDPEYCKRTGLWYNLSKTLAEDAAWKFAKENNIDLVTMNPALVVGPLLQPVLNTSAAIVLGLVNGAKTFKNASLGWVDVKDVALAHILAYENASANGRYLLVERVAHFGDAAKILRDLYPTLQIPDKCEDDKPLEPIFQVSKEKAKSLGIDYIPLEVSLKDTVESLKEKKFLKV
Text: The protein encoded in the VRER gene was characterized biochemically. […] It was also investigated whether this protein was capable of reducing other substrates.

[2] = test system: transformed (UBT) calluses of Vitis vinifera cv Ugni blanc; assay: Biotest II: development of calluses in the presence of eutypine; type: cell-based
Procedure: (§1) The transformation experiments were also performed on calluses of Vitis vinifera cv Ugni blanc by making use of the same experimental protocol as that used for the transformation of the calluses of Vitis vinifera cv. Gamay.
(§2) The analysis of the behaviour of the calluses of Vitis vinifera cv Ugni blanc towards eutypine was performed by using biotest II.

[3] = test system: untransformed (UBWT) calluses of Vitis vinifera cv Ugni blanc; assay: as above; type: cell-based
Procedure: as §1, §2

mitochondria = assay: Decoupling of oxidative phosphorylation in mitochondria; type: biochemical
Procedure: The mode of action of eutypine was confirmed by investigating its effects on the functioning of mitochondria. Eutypine acts as a decoupling agent of oxidative phosphorylation. The complete decoupling of the mitochondria is attained at concentrations of eutypine close to 150 μM.

[4] = test system: transformed calluses (GA); assay: Biotest II: growth of calluses on media containing eutypine; settings: 500 μM of eutypine; GA variety
grapevine cells [5] = assay: Consumption of oxygen of grapevine cells; type: cell-based; settings: activation at low dose
Procedure: Eutypine affects the functioning of the membrane systems of the grapevine cells. It causes the acidification of the cytoplasm, the reduction of leucine transport, the activation at low dose of the consumption of oxygen and its inhibition above 160 μM, and a diminution of the energy load of the cells.

grapevine cells [6] = assay: Penetration of eutypine into grapevine cells; type: cell-based
Text: The investigation of the mode of action of eutypine in the grapevine cells was made possible owing to the availability of eutypine in the unlabelled form and in the radioactive form, labelled with carbon 14.
This toxic molecule then accumulates in the cytoplasm by an acid trapping mechanism and, owing to its lipophilic character, inserts itself into the lipids of the membranes.

[7] = test system: protoplasts obtained from grapevine leaves; assay: Tolerance of leaf protoplasts to eutypine; type: cell-based; settings: Cabernet Sauvignon protoplasts compared with Merlot protoplasts
Text: the eutypine applied to simplified biological systems causes more serious symptoms in the varieties sensitive to eutypa dieback than in varieties of grapevines tolerant to this disease.

[8] = test system: protoplasts of Ugni blanc; assay: Degradation of eutypine by protoplasts (detoxification activity); type: in vitro ADME, Vitis vinifera; settings: Ugni blanc (very sensitive); eutypine 100 μM, 1 hour, 30° C.
Procedure: (§3) The protoplasts (10^6/ml) obtained from leaves of vitroplants are incubated for 1 hour at 30° C. in the presence of eutypine (100 μM; 0.4 kBq). Then, the phenylacetylenic compounds are extracted, separated by thin layer chromatography and the metabolic rate of eutypine is calculated after determination of the radioactivity associated with eutypine and eutypinol.

protoplasts of Merlot = assay: as above; type: in vitro ADME, Vitis vinifera; settings: Merlot (tolerant); eutypine 100 μM, 1 hour, 30° C.
Procedure: as §3

[9] = test system: protoplasts of Cabernet Sauvignon; assay: as above; type: in vitro ADME, Vitis vinifera; settings: Cabernet Sauvignon (sensitive); eutypine 100 μM, 1 hour, 30° C.
Procedure: as §3

[10] = Viability of leaf protoplasts cultured with eutypine or eutypinol; type: cell-based, Vitis vinifera; settings: Vitis vinifera, protoplasts 4.5×10^5/ml, 48 hours, read-out: Viability after 48 hours
Procedure: (§4) The protoplasts (4.5×10^5/ml) are cultured in the presence of eutypine or eutypinol for 48 hours.

[11] = test system: untransformed (GWT) grapevine cells; assay: Biotest I: mortality of grapevine cells in suspension with eutypine (erythrosine); type: cell-based, Vitis vinifera cv Gamay; settings: GWT wildtype
Procedure: (§5) In the biotest I, the percentage of dead cells was estimated by means of the erythrosine reagent. The concentration of eutypine inducing a percentage of dead cells of 50% is determined in the wildtype strain and in the transformed varieties.

[12] = test system: transformed (GA, GB, GC, GD) grapevine cells; assay: as above; type: cell-based, Vitis vinifera cv Gamay
Procedure: as §5

grapevine vitroplants = assay: Application of eutypine to grapevine vitroplants; type: in vivo
[13] = test system: untransformed calluses (GWT); assay: Biotest II: growth of calluses on media containing eutypine; settings: 500 μM of eutypine; wildtype calluses
[14] = test system: protoplasts obtained from leaves of vitroplants of Vitis vinifera cv. Cabernet Sauvignon; assay: Viability of leaf protoplasts cultured with eutypine or eutypinol; type: cell-based; settings: for Viability after 48 hours: protoplasts 4.5×10^5/ml
Procedure: as §4

eutypine reductase = assay: Conversion of eutypine to eutypinol: effect of reductase inhibitors; type: biochemical, grapevine
Text: The conversion of eutypine to eutypinol is catalyzed by a non-membrane enzyme, which specifically requires NADPH as co-factor. Its activity is reduced by reductase inhibitors such as disulfiram and parahydroxymercuribenzoic acid, confirming its membership of this group of enzymes. It has been called “eutypine reductase”. The reaction scheme is shown below. [drawing 2]

[15] = Reduction of eutypine by lysate of E. coli overexpressing the VRER protein; type: biochemical, Vigna radiata; settings: NADPH, radioactive eutypine, thin layer chromatography
Text: For that, the complementary DNA of the VRER gene was cloned in an expression vector, then transferred into the bacteria. The lysate of these bacteria which overexpress the protein corresponding to the VRER gene uses the co-factor NADPH to reduce eutypine.

Which “reduction by the ER protein” value [1] does the source give for 2-fluoraldehyde here?
The value was “reduced”.

Which “reduction by the ER protein” value [1] does the source give for `O=Cc1ccncc1` [4-pyridine carbaldehyde] here?
The value was “reduced”.

Which results are given for `C=C(C)C#Cc1cc(C=O)ccc1O` [Eutypine, 4-hydroxy-3-(3-methylbut-3-en-1-ynyl) benzaldehyde]?
Mean mass of a callus ([2]; 500 μM of eutypine, UBT): 150 mg; growth of the calluses ([2]; 500 μM, transformed UB variety): practically unaffected; Mean mass of a callus ([3]; 500 μM of eutypine, UBWT): 25 mg; development of calluses ([3]; 500 μM, wildtype variety): necrose rapidly and do not develop; concentration for complete decoupling of the mitochondria (mitochondria): ~150 µM; development of calluses [4]: does not exhibit necroses; concentration for inhibition of the consumption of oxygen (grapevine cells [5]): above 160 μM; penetration into the grapevine cells (grapevine cells [6]): passive diffusion; tolerance of protoplasts to eutypine [7]: lower tolerance; Detoxification activity [8]: 7.9 pmol/min/10^5 cells; Detoxification activity (protoplasts of Merlot): 13.6 pmol/min/10^5 cells; Detoxification activity [9]: 10.1 pmol/min/10^5 cells; viability at 48 h, 100 µM ([10]; 100 μM): 67%; viability at 48 h, 200 µM ([10]; 200 μM): 0%; LD50 (eutypine concentration causing the mortality of 50%) [11]: 100 µM; LD50 (eutypine concentration causing the mortality of 50%) ([12]; GA transformed cells in suspension): 255 µM; LD50 (eutypine concentration causing the mortality of 50%) ([12]; GB transformed cells in suspension): 250 µM; LD50 (eutypine concentration causing the mortality of 50%) ([12]; GC transformed cells in suspension): 230 µM; LD50 (eutypine concentration causing the mortality of 50%) ([12]; GD transformed cells in suspension): 225 µM; symptoms of the disease (grapevine vitroplants; applied to grapevine vitroplants): reproduces certain symptoms of the disease; ultrastructural alterations in the leaves (grapevine vitroplants; leaves of vitroplants): induces ultrastructural alterations; development of calluses [13]: do not develop

With `C=C(C)C#Cc1cc(CO)ccc1O` [Eutypinol, 4-hydroxy-3-(3-methylbut-3-en-1-ynyl) benzylic alcohol] as the molecule, how does the “Viability after 48 hours” value ([14]; 200 μM) read?
The value was 86.

What about the “Viability after 48 hours” value ([14]; 500 μM) of the same molecule?
The value was 83.

What about the “toxicity to the grapevine” value ([14]; even at high concentrations) of the same molecule?
The value was “does not show toxicity”.

Which “reduction by the ER protein” value [1] does the source give for `O=Cc1ccccc1` [benzaldehyde] here?
Its value is “reduced”.

For `CCCCCCCCCC=O` [decylaldehyde], which “reduction by the ER protein” value [1] is on record?
Its value is “reduced”.

Which “reduction by the ER protein” value [1] does the source give for `CCCCCC=O` [hexanal] here?
Its value is “reduced”.

Which “activity of eutypine reductase in the presence of reductase inhibitor” value (eutypine reductase) does the source give for `O=C(O)c1cc[c]([Hg][OH])cc1` [parahydroxymercuribenzoic acid] here?
Its value is “reduced”.

B1: protein corresponding to the VRER gene: polypeptide of 325 amino acids from Vigna radiata with eutypine reductase activity, SEQ ID NO. 4 (protein)
chain: T1 sequence (Q9SQK0 1-325)
With B1 as the molecule, how does the eutypine reductase activity [15] read?
Its eutypine reductase activity is “exhibits a “eutypine reductase” activity in vitro”.
